Data from US11040954B1, “CXCR3 receptor agonists” (RECEPTOS LLC, priority 2016, dated 2021).
Read-outs that look alike come from different tables or passages of the source.

Tests used:
CXCR3 = molecular target: T1, CXCR3 (Homo sapiens, UniProt P49682); experiment: CXCR3 cAMP agonist assay (cAMP Hunter CHOK1 CXCR3 Gi cell line, forskolin-stimulated, HitHunter cAMP detection); format: cell-based; settings: cAMP Hunter CHOK1 CXCR3 Gi cells, 20 μM forskolin, 30 minutes; read-out: Activity (CXCR3 cAMP agonist assay compound EC50)
T1 construct: host or cells: CHO-K1 (cAMP Hunter CHOK1 CXCR3 Gi cell line)
T1 sequence (P49682 1-368): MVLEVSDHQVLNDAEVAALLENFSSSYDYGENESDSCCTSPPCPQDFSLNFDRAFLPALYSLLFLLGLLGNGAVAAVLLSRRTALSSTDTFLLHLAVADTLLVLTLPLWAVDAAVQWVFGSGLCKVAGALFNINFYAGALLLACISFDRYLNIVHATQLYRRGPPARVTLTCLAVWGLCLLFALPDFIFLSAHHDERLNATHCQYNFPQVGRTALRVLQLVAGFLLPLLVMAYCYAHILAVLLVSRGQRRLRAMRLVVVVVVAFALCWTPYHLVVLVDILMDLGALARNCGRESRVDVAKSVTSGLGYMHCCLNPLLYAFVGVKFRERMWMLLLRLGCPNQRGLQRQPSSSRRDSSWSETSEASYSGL
Summary of the method: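 Agonist activity was measured as suppression of forskolin (20 μM)-induced cAMP, read by luminescent enzyme-fragment complementation with a cAMP standard curve and CXCL11 defining full efficacy. Assay used 50,000 CXCR3 Gi CHOK1 cells/well in pH 7.4 HEPES-buffered HBSS with 0.1% BSA, compound 0-10 μM over 12 points, 30 min incubation.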

[1] = Mouse pharmacokinetics after oral gavage, plasma drug concentration by LC-MS/MS (C57BL/6); format: in vivo, C57bl/6 mice; settings: for Cmax / AUC(0-t): mouse, plasma; for AUC(0-t): read-out: AUC0-24
Description: Compounds were formulated in 5% DMSO/5% Tween20 in H2O, sonicated, vortexed, and put on stir plate overnight at a dose volume of 10 mL/kg. Balb/C (Jackson laboratories) or C57bl/6 (Taconic Biosciences) mice (8-9 weeks old) were acclimated to the colony for 3 days prior to dosing. Water and food were provided ab libitum. Compounds were administered by oral gavage. Groups of six animals received 3 to 4 bleeds per day with one terminal bleed. The time points were 30 min, 1 h, 2 h, 4 h, 6 h, 8 h, 24 h. Plasma was collected via centrifugation and analyzed for drug concentrations.
Preparation of Study Samples and Standards for Analysis by LC-MS/MS
50 μl of plasma was aliquoted into a 96 well deep-well polypropylene plate (2 mL) to which 5 μL of DMSO was added. For standards, 5 μl of test compound in DMSO at […] the standard concentration was added to 50 μl of blank matrix in a 96 well deep-well polypropylene plate. For example, for a 300 nM standard, the 10× DMSO concentration was 3 μM. Study samples that require dilution are diluted with the appropriate blank matrix. For example, for a 10× dilution, 5 μL of study sample is added to 45 μl of blank matrix. Protein was precipitated from study samples and standards with the addition of 150 μl of acetonitrile. After a clean plate map was placed firmly over the top of the 96-well plate, a bench top shaker was used for 1 min to ensure complete precipitation of protein. The precipitated protein was pelleted by centrifuging for 3,000 rpm for 10 min at 20° C. and then the clear supernatant was transferred to a clean 96-well plate and spun again under the same conditions in order to pellet any solid material that may have been transferred.
Analysis of Study Samples and Standards with LCMS with MRM Detection
An Agilent 1200 HPLC with binary pump and a Leap CTC with fast wash autosampler were used to introduce samples to the mass spectrometer.
The column used was a Phenomenex Luna C8 30×2 mm 5 μm with a security guard. Mass detection was performed by an Applied Biosystems 4000 Qtrap in MRM mode and ionization was achieved by positive electrospray with a source temperature of 500° C. The ion transitions, […] potential and collision energies were dependent on the specific analyte.
Prepared samples were usually analyzed in reverse chronological order with bracketing standard curves. Typically at least 6 standards were used for quantification with a percent accuracy of +/−15% for all standards except at the LLOQ where a percent accuracy of +/−20% was allowed. The concentration time profile was fit using a one compartment model for the applicable mode of dosing using Phoenix WinNonLin 6.4.

Structure (SMILES)	EC50 (CXCR3) [nM]	Cmax ([1]; C57BL/6, 60 mg/kg, female mice) [nM]	other results
CCc1cc(NC(=O)[C@H](CCN)NC(=O)[C@@H]2Cc3ccccc3CN2C(=O)CCC(=O)c2ccccc2)ccc1Cl [Compound 2-55]	< 50	3000	apparent oral clearance (CL/F) ([1]; C57BL/6, 60 mg/kg, female mice): 176 mL/min/kg; AUC(0-t) ([1]; C57BL/6, 60 mg/kg, female mice): 9.9 µM·h
COc1cc(Cl)c(Cl)cc1NC(=O)[C@H](CCN)NC(=O)[C@@H]1Cc2ccccc2CN1C(=O)CCC(=O)c1ccccc1 [Compound 2-23]	< 50	–	apparent oral clearance (CL/F) ([1]; C57BL/6, 60 mg/kg, male mice): 88 mL/min/kg; Cmax ([1]; C57BL/6, 60 mg/kg, male mice): 3900 nM; AUC(0-t) ([1]; C57BL/6, 60 mg/kg, male mice): 19 µM·h
Cc1cc(NC(=O)C2(NC(=O)[C@@H]3Cc4ccccc4CN3C(=O)CCC(=O)c3ccccc3)CCNCC2)ccc1Cl [Compound 4-12]	50 to 250	–	apparent oral clearance (CL/F) ([1]; C57BL/6, 10 mg/kg, male mice): 32 mL/min/kg; Cmax ([1]; C57BL/6, 10 mg/kg, male mice): 3300 nM; AUC(0-t) ([1]; C57BL/6, 10 mg/kg, male mice): 9 µM·h
Cc1c(NC(=O)[C@H](CCN)NC(=O)[C@@H]2Cc3ccccc3CN2C(=O)CCC(=O)c2ccccc2)ccc(Cl)c1Cl [Compound 2-15]	< 50	–	apparent oral clearance (CL/F) ([1]; C57BL/6, 10 mg/kg, male mice): 37 mL/min/kg; Cmax ([1]; C57BL/6, 10 mg/kg, male mice): 970 nM; AUC(0-t) ([1]; C57BL/6, 10 mg/kg, male mice): 7.5 µM·h
Cc1cccc(NC(=O)[C@H](CCN)NC(=O)[C@@H]2Cc3ccccc3CN2C(=O)CCC(=O)c2ccccc2)c1C [Compound 2-49]	< 50	7100	apparent oral clearance (CL/F) ([1]; C57BL/6, 60 mg/kg, female mice): 131 mL/min/kg; AUC(0-t) ([1]; C57BL/6, 60 mg/kg, female mice): 14.1 µM·h
Cc1cc(NC(=O)C(NC(=O)[C@@H]2Cc3ccccc3CN2C(=O)CCC(=O)c2ccccc2)C2CCN(C)CC2)ccc1Cl (mixture of isomers) [Compound 6-5]	50 to 250	–	–
NCC[C@H](NC(=O)[C@@H]1Cc2ccccc2CN1C(=O)CCC(=O)c1ccccc1)C(=O)Nc1ccc(C(F)(F)F)c(Cl)c1 [Compound 2-13]	> 500	–	–
NCC[C@H](NC(=O)[C@@H]1Cc2ccccc2CN1C(=O)CCC(=O)c1ccccc1)C(=O)Nc1cccc(C(F)(F)F)c1 [Compound 2-6]	50 to 250	–	–
CC1(C)Cc2ccc(NC(=O)[C@H](CCN)NC(=O)[C@@H]3Cc4ccccc4CN3C(=O)CCC(=O)c3ccccc3)cc2C1 [Compound 2-75]	50 to 250	–	–
Cc1ccc(C(=O)CCC(=O)N2Cc3ccccc3C[C@H]2C(=O)N[C@@H](CCCCN)C(=O)Nc2ccc(Cl)c(C)c2)cc1F [Compound 7-5]	> 500	–	–
NCCCC[C@H](NC(=O)[C@@H]1Cc2ccccc2CN1C(=O)CCC(=O)c1ccccc1)C(=O)Nc1ccc(C(F)(F)F)c(F)c1 [Compound 1-19]	250 to 500	–	–
CCc1ccc(NC(=O)[C@H](CCN)NC(=O)[C@@H]2Cc3ccccc3CN2C(=O)CCC(=O)c2ccccc2)c(F)c1 [Compound 2-56]	250 to 500	–	–

The next lines start with results.

EC50 (CXCR3) [nM]	Cmax ([1]; C57BL/6, 60 mg/kg, female mice) [nM]	Structure (SMILES)	other results
< 50	500	CN1CCN(C(=O)CCC(=O)N2Cc3ccccc3C[C@H]2C(=O)NC2(C(=O)Nc3ccc(Cl)c(Cl)c3F)CCNCC2)CC1 [Compound 12-138]	apparent oral clearance (CL/F) ([1]; C57BL/6, 60 mg/kg, female mice): 851 mL/min/kg; AUC(0-t) ([1]; C57BL/6, 60 mg/kg, female mice): 1.8 µM·h
< 50	4300	Cc1cc(NC(=O)[C@H](CCN)NC(=O)[C@@H]2Cc3ccccc3CN2C(=O)CCC(=O)N2CCCC(C)(C)C2)cc(C)c1Cl [Compound 10-9]	apparent oral clearance (CL/F) ([1]; C57BL/6, 60 mg/kg, female mice): 132 mL/min/kg; AUC(0-t) ([1]; C57BL/6, 60 mg/kg, female mice): 12.4 µM·h
< 50	1800	CC1(C)CCN(C(=O)CCC(=O)N2Cc3ccccc3C[C@H]2C(=O)N[C@@H](CCN)C(=O)Nc2ccc(Cl)c(Cl)c2F)C1 [Compound 15-2]	apparent oral clearance (CL/F) ([1]; C57BL/6, 60 mg/kg, female mice): 347 mL/min/kg; AUC(0-t) ([1]; C57BL/6, 60 mg/kg, female mice): 4.6 µM·h
< 50	370	Cc1cc(NC(=O)[C@H](CCN)NC(=O)[C@@H]2Cc3ccccc3CN2C(=O)CCC(=O)N2CCN(C)C[C@H]2C)ccc1Cl [Compound 12-100]	AUC0-24 ([1]; C57BL/6, 60 mg/kg, female mice): BQL
< 50	600	CC1(C)CCCCN1C(=O)CCC(=O)N1Cc2cc(F)ccc2C[C@H]1C(=O)N[C@@H](CCN)C(=O)Nc1ccc(Cl)c(Cl)c1F [Compound 15-62]	apparent oral clearance (CL/F) ([1]; C57BL/6, 60 mg/kg, female mice): 1100 mL/min/kg; AUC(0-t) ([1]; C57BL/6, 60 mg/kg, female mice): 1.4 µM·h
< 50	5700	CC1(C)CCCN(C(=O)CCC(=O)N2Cc3ccccc3C[C@H]2C(=O)N[C@@H](CCN)C(=O)Nc2ccc(Cl)c(Cl)c2F)C1 [Compound 15-6]	apparent oral clearance (CL/F) ([1]; C57BL/6, 60 mg/kg, female mice): 90 mL/min/kg; AUC(0-t) ([1]; C57BL/6, 60 mg/kg, female mice): 17.6 µM·h
< 50	600	Cc1cc(NC(=O)[C@H](CCN)NC(=O)[C@@H]2Cc3ccccc3CN2C(=O)CCC(=O)N(C)CC(C)(C)C)ccc1Cl [Compound 12-114]	apparent oral clearance (CL/F) ([1]; C57BL/6, 60 mg/kg, female mice): 823 mL/min/kg; AUC(0-t) ([1]; C57BL/6, 60 mg/kg, female mice): 2.1 µM·h
< 50	1200	Cc1cc(NC(=O)[C@H](CCN)NC(=O)[C@@H]2Cc3ccccc3CN2C(=O)CCC(=O)N2CCCCC2(C)C)c(C#N)cc1Cl [Compound 18-1, (S)—N—((S)-4-amino-1-((4-chloro-2-cyano-5-methylphenyl)amino)-1-oxobutan-2-yl)-2-(4-(2,2-dimethylpiperidin-1-yl)-4-oxobutanoyl)-1,2,3,4-tetrahydroisoquinoline-3-carboxamide]	apparent oral clearance (CL/F) ([1]; C57BL/6, 60 mg/kg, female mice): 565 mL/min/kg; AUC(0-t) ([1]; C57BL/6, 60 mg/kg, female mice): 2.9 µM·h
50 to 250	–	NCC[C@H](NC(=O)[C@@H]1Cc2ccccc2CN1C(=O)CCC(=O)N1CCCC[C@H]1CO)C(=O)Nc1ccc(Cl)c(Cl)c1F [Compound 15-19]	–
250 to 500	–	NCC[C@H](NC(=O)[C@@H]1Cc2ccccc2CN1C(=O)CCC(=O)c1ccccc1)C(=O)Nc1cccc(Cl)c1C(F)(F)F [Compound 14-16]	–
< 50	–	NCC[C@H](NC(=O)[C@@H]1Cc2ccccc2CN1C(=O)CCC(=O)N1CCC(C(F)(F)F)C1)C(=O)Nc1ccc(Cl)c(Cl)c1F (stereo partly drawn) [Compound 15-47]	–
50 to 250	–	Cc1cc(NC(=O)[C@H](CCN)NC(=O)[C@@H]2Cc3ccccc3CN2C(=O)CCC(=O)N2CCCN(C)CC2)ccc1Cl [Compound 12-34]	–
> 500	–	Cc1cc(NC(=O)[C@H](CCN)NC(=O)[C@@H]2Cc3ccccc3CN2C(=O)CCC(=O)N(C)Cc2ccccc2)ccc1Cl [Compound 12-16]	–
50 to 250	–	COc1cc(Cl)ccc1NC(=O)[C@H](CCN)NC(=O)[C@@H]1Cc2ccccc2CN1C(=O)CCC(=O)c1ccccc1 [Compound 13-4]	–
< 50	–	NCC[C@H](NC(=O)[C@@H]1Cc2ccccc2CN1C(=O)CCC(=O)N1CCC2(CC2)C1)C(=O)Nc1ccc(Cl)c(Cl)c1F [Compound 15-46]	–
250 to 500	–	[N-]=[N+]=NCC[C@H](NC(=O)[C@@H]1Cc2ccccc2CN1C(=O)CCC(=O)c1ccccc1)C(=O)Nc1ccc(Cl)c(Cl)c1F [Compound 14-22, (S)—N—((S)-4-azido-1-((3,4-dichloro-2-fluorophenyl)amino)-1-oxobutan-2-yl)-2-(4-oxo-4-phenylbutanoyl)-1,2,3,4-tetrahydroisoquinoline-3-carboxamide]	–
< 50	–	Cc1cc(NC(=O)[C@H](CCN)NC(=O)[C@@H]2Cc3ccccc3CN2C(=O)CCC(=O)N2CCC[C@@H]2C)ccc1Cl [Compound 12-45]	–
< 50	–	Cc1cc(NC(=O)[C@H](CCN)NC(=O)[C@@H]2Cc3ccccc3CN2C(=O)CCC(=O)N2CCCCC2C(C)C)ccc1Cl (stereo partly drawn) [Compound 12-121]	–
50 to 250	–	Cc1cc(NC(=O)[C@H](CCN)NC(=O)[C@@H]2Cc3ccccc3CN2C(=O)CCC(=O)N2CCOC[C@@H]2C)ccc1Cl [Compound 12-27]	–
